Several values for one entry are separate records, joined by “and”; a condition that tells them apart may be missing. Equal entries are not always repeated.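 Step 1: Grow cells in 96-well plates. Step 2: Expose to compound for 48 hours at 5 concentrations. Step 3: Interpolate endpoints linearly; if unreached, use highest concentration. The concentration for 50% growth inhibition is given as GI50. TGI marks complete inhibition of growth.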

The first assay deals with RXF 393 renal. Briefly: NCI anticancer screen, dose series, 48 h.
Take `COC1(OC)CCc2c(sc3ncnc(Nc4cccc(Br)c4)c23)C1`: the TGI is 62.4 µM.
Compound `O=[N+]([O-])c1ccc(/C=N/Nc2nc3ccccc3[nH]2)o1` returned a TGI of 28.2 µM.
Same read-out and setting: as for `COC(=O)C1CCC(=O)N1CN(C(C)=O)c1cccc(O)c1` (stereo not given), the figure is over 100 µM.
With `O=C(Nn1c(-c2ccccc2)nc2ccccc2c1=O)c1ccc(Cl)cc1`, the TGI is over 100 µM.
`Cc1nc2sc3cccc(Cl)c3n2c(=O)c1N=Nc1ccc(Cl)cc1` yielded a TGI of over 100 µM.
Take `O=C1c2ccccc2N2OC3(N4CCOCC4)CCCC3C12c1ccccc1` (stereo not given): the TGI was over 100 µM.
The same measure, in the same setting: for `COC(=O)[C@@H]1CO[C@H](C(C)(C)C)N1C(=O)N1C=CC(=O)C[C@H]1C` the value was over 100 µM.
Consider `COc1cc(C2c3cc4c(cc3OC(NN)C2C)OCO4)cc(OC)c1O` (stereo not given), for which the TGI was over 100 µM.
In the case of `NC1=NC2(COC(c3ccccc3)(c3ccccc3)c3ccccc3)OC(COC(c3ccccc3)(c3ccccc3)c3ccccc3)C(O)C2O1` (stereo not given), the TGI is over 100 µM.
In turn, `CC(SC(=S)N1CCOCC1)C(=O)Nc1nnc(-c2ccc(Cl)cc2)o1` (stereo not given) gave a TGI of over 100 µM.
Regarding `CC1(C)O[C@@H]2[C@@H](COC(C)(C)O[C@H]2C2SCCCS2)O1`, the TGI was over 100 µM.
On the same count and under the same terms, for `O=C(CCc1cc(O)cc(O)c1)NCCc1cc(O)cc(OCc2ccccc2)c1` the value was over 100 µM; for `O=C(O)CCCc1ccc2c(c1)CC1(C2)Cc2cc3c(cc2C1)CCCC3`, over 100 µM.
On to `O=C(NCCN(CCNC(=O)c1cccc(O)c1O)CCNC(=O)c1cccc(O)c1O)c1cccc(O)c1O`, for which the TGI was 94.6 µM.
Same read-out and setting: as for `O=[N+]([O-])c1cccc2nc3ccccc3c(NCCCCCNc3c4ccccc4nc4cccc([N+](=O)[O-])c34)c12`, the figure is 0.111 µM; as for `COC(=O)c1c(C)cccc1/C=C1\Cc2ccc(C)c(C)c2C1=O`, over 100 µM; as for `O=C(c1ccccc1)C1(Br)S(=O)(=O)OCCOS1(=O)=O`, over 100 µM.
The compound `C1CCC(N=C2N(C3CCCCC3)C(=NC3CCCCC3)N2C2CCCCC2)CC1` displayed a TGI of over 100 µM.
With `O=S(=O)(/N=C(\NO)Nc1ccc(Cl)cc1)c1cc(C(F)(F)F)cc(C(F)(F)F)c1`, the TGI amounted to 41 µM.

The test system of the next assay is SF-539 CNS. Briefly: NCI anticancer screen, dose series, 48 h.
As to `COC1(OC)CCc2c(sc3ncnc(Nc4cccc(Br)c4)c23)C1`, the TGI was over 100 µM.
In turn, `O=[N+]([O-])c1ccc(/C=N/Nc2nc3ccccc3[nH]2)o1` yielded a TGI of 13.8 µM.
For `COC(=O)C1CCC(=O)N1CN(C(C)=O)c1cccc(O)c1` (stereo not given), the TGI was over 100 µM.
Compound `O=C(Nn1c(-c2ccccc2)nc2ccccc2c1=O)c1ccc(Cl)cc1` came in with a TGI of over 100 µM.
Still for that read-out and setting: as for `Cc1nc2sc3cccc(Cl)c3n2c(=O)c1N=Nc1ccc(Cl)cc1`, the figure is over 100 µM; as for `O=C1c2ccccc2N2OC3(N4CCOCC4)CCCC3C12c1ccccc1` (stereo not given), over 100 µM; as for `COc1cc(C2c3cc4c(cc3OC(NN)C2C)OCO4)cc(OC)c1O` (stereo not given), 45.4 µM.
The compound `NC1=NC2(COC(c3ccccc3)(c3ccccc3)c3ccccc3)OC(COC(c3ccccc3)(c3ccccc3)c3ccccc3)C(O)C2O1` (stereo not given) yielded a TGI of over 100 µM.
`CC(SC(=S)N1CCOCC1)C(=O)Nc1nnc(-c2ccc(Cl)cc2)o1` (stereo not given): the TGI was over 100 µM.
With `CC1(C)O[C@@H]2[C@@H](COC(C)(C)O[C@H]2C2SCCCS2)O1`, the TGI is over 100 µM.
Compound `O=C(CCc1cc(O)cc(O)c1)NCCc1cc(O)cc(OCc2ccccc2)c1` returned a TGI of over 100 µM.
On the same count and under the same terms, as for `O=C(O)CCCc1ccc2c(c1)CC1(C2)Cc2cc3c(cc2C1)CCCC3`, the figure is 3.82 µM; as for `O=C(NCCN(CCNC(=O)c1cccc(O)c1O)CCNC(=O)c1cccc(O)c1O)c1cccc(O)c1O`, over 100 µM.
As for `O=[N+]([O-])c1cccc2nc3ccccc3c(NCCCCCNc3c4ccccc4nc4cccc([N+](=O)[O-])c34)c12`, the TGI was 0.135 µM and 0.0297 µM.
Take `COC(=O)c1c(C)cccc1/C=C1\Cc2ccc(C)c(C)c2C1=O`: the TGI is over 100 µM.
The same measure, in the same setting: as for `O=C(c1ccccc1)C1(Br)S(=O)(=O)OCCOS1(=O)=O`, the figure is over 100 µM.
With `O=S(=O)(/N=C(\NO)Nc1ccc(Cl)cc1)c1cc(C(F)(F)F)cc(C(F)(F)F)c1`, the TGI came out at 46.6 µM.

Another assay has as its system SK-OV-3 ovarian. Briefly: NCI anticancer screen, dose series, 48 h.
As for `COC1(OC)CCc2c(sc3ncnc(Nc4cccc(Br)c4)c23)C1`, the TGI is over 100 µM.
Compound `O=[N+]([O-])c1ccc(/C=N/Nc2nc3ccccc3[nH]2)o1` came in with a TGI of over 100 µM.
`COC(=O)C1CCC(=O)N1CN(C(C)=O)c1cccc(O)c1` (stereo not given) gave a TGI of over 100 µM.
Same read-out and setting: for `O=C(Nn1c(-c2ccccc2)nc2ccccc2c1=O)c1ccc(Cl)cc1` the value was over 100 µM; for `Cc1nc2sc3cccc(Cl)c3n2c(=O)c1N=Nc1ccc(Cl)cc1`, over 100 µM; for `O=C1c2ccccc2N2OC3(N4CCOCC4)CCCC3C12c1ccccc1` (stereo not given), over 100 µM.
Take `COC(=O)[C@@H]1CO[C@H](C(C)(C)C)N1C(=O)N1C=CC(=O)C[C@H]1C`: the TGI is over 100 µM.
Turning to `NC1=NC2(COC(c3ccccc3)(c3ccccc3)c3ccccc3)OC(COC(c3ccccc3)(c3ccccc3)c3ccccc3)C(O)C2O1` (stereo not given), the TGI is over 100 µM.
The same measure, in the same setting: as for `CC(SC(=S)N1CCOCC1)C(=O)Nc1nnc(-c2ccc(Cl)cc2)o1` (stereo not given), the figure is over 100 µM.
Same read-out and setting: as for `CC1(C)O[C@@H]2[C@@H](COC(C)(C)O[C@H]2C2SCCCS2)O1`, the figure is over 100 µM; as for `O=C(CCc1cc(O)cc(O)c1)NCCc1cc(O)cc(OCc2ccccc2)c1`, over 100 µM; as for `O=C(O)CCCc1ccc2c(c1)CC1(C2)Cc2cc3c(cc2C1)CCCC3`, 52.9 µM.
Take `O=C(NCCN(CCNC(=O)c1cccc(O)c1O)CCNC(=O)c1cccc(O)c1O)c1cccc(O)c1O`: the TGI is over 100 µM.
Consider `O=[N+]([O-])c1cccc2nc3ccccc3c(NCCCCCNc3c4ccccc4nc4cccc([N+](=O)[O-])c34)c12`, for which the GI50 is 0.08 µM; the TGI was 1.25 µM and 1.14 µM.
For the compound `O=C(c1ccccc1)C1(Br)S(=O)(=O)OCCOS1(=O)=O`, the TGI was over 100 µM.
For `C1CCC(N=C2N(C3CCCCC3)C(=NC3CCCCC3)N2C2CCCCC2)CC1`, the TGI was over 100 µM.
`O=S(=O)(/N=C(\NO)Nc1ccc(Cl)cc1)c1cc(C(F)(F)F)cc(C(F)(F)F)c1` had a TGI of 35.2 µM.

A further assay concerns NCI-H460 lung. In words: NCI anticancer screen, dose series, 48 h.
Compound `COC1(OC)CCc2c(sc3ncnc(Nc4cccc(Br)c4)c23)C1` registered a TGI of over 100 µM.
`O=[N+]([O-])c1ccc(/C=N/Nc2nc3ccccc3[nH]2)o1` showed a TGI of over 100 µM.
The compound `COC(=O)C1CCC(=O)N1CN(C(C)=O)c1cccc(O)c1` (stereo not given) came in with a TGI of over 100 µM.
Consider `O=C(Nn1c(-c2ccccc2)nc2ccccc2c1=O)c1ccc(Cl)cc1`, for which the TGI is over 100 µM.
For `Cc1nc2sc3cccc(Cl)c3n2c(=O)c1N=Nc1ccc(Cl)cc1`, the TGI is over 100 µM.
Compound `CC(SC(=S)N1CCOCC1)C(=O)Nc1nnc(-c2ccc(Cl)cc2)o1` (stereo not given) registered a TGI of over 100 µM.
In the case of `CC1(C)O[C@@H]2[C@@H](COC(C)(C)O[C@H]2C2SCCCS2)O1`, the TGI was over 100 µM.
Same read-out and setting: as for `O=C(CCc1cc(O)cc(O)c1)NCCc1cc(O)cc(OCc2ccccc2)c1`, the figure is 47.3 µM; as for `O=C(NCCN(CCNC(=O)c1cccc(O)c1O)CCNC(=O)c1cccc(O)c1O)c1cccc(O)c1O`, over 51.6 µM; as for `O=[N+]([O-])c1cccc2nc3ccccc3c(NCCCCCNc3c4ccccc4nc4cccc([N+](=O)[O-])c34)c12`, 0.164 µM.
`COC(=O)c1c(C)cccc1/C=C1\Cc2ccc(C)c(C)c2C1=O` gave a TGI of over 100 µM.

The values are drawn from PubChem BioAssay (NCI).
